Assay results published in publication PMC10057480, “Expanding the Library of 1,2,4-Oxadiazole Derivatives: Discovery of New Farnesoid X Receptor (FXR) Antagonists/Pregnane X Receptor (PXR) Agonists” (Molecules, 2023).
“And” between values parts separate entries of the source, which are not always exact repeats. Identical values can stand only once.

Legend:
[1] = LogD measurement (1-octanol/PBS pH 7.4, LC-MS/MS); type: physicochemical
Procedure: 40 μL of a 10 mM solution in DMSO of each compound was added to a 2 mL test tube containing 980 μL of PBS pH 7.4 and 980 μL of 1-Octanol (in duplicate). The tubes were shaken for 2 h at room temperature and subsequently kept still to allow for an optimal phase separation. The two phases were then separated, and 10 μL of each sample was diluted in 490 μL of MeOH for LC-MS/MS analysis. LogD was calculated as Log10 of the ratio of mass signal octanol/PBS. LC-MS/MS analysis was conducted using a Kinetex 2.6 µm C18 100 Å LC column 100 × 2.1 mm by means of a linear gradient of the aqueous phase (H2O 0.1% FA) and organic phase (ACN 0.1% FA).

[2] = target: T1, PXR (Homo sapiens, UniProt O75469); experiment: PXR luciferase reporter transactivation assay (agonism) on HepG2 cells; type: cell-based; conditions: compound 10 μM, maximal transactivation compared to Rifaximin 10 μM, mean ± SD, at least three experiments
T1 construct: expressed in transfected cells; host or cells: HepG2
T1 sequence (O75469 1-434): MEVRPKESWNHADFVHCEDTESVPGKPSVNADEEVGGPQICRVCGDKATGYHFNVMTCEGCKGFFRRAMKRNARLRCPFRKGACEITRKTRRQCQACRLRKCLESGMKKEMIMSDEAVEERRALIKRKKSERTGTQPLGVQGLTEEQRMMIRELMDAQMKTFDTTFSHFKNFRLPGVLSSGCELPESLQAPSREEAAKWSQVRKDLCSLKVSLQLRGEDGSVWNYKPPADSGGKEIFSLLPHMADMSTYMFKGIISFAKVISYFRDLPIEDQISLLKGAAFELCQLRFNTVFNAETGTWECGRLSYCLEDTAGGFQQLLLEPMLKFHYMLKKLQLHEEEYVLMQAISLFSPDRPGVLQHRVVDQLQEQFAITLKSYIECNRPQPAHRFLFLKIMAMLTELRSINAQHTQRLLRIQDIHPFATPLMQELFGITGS
T1 sequence (P19793 1-462 partner): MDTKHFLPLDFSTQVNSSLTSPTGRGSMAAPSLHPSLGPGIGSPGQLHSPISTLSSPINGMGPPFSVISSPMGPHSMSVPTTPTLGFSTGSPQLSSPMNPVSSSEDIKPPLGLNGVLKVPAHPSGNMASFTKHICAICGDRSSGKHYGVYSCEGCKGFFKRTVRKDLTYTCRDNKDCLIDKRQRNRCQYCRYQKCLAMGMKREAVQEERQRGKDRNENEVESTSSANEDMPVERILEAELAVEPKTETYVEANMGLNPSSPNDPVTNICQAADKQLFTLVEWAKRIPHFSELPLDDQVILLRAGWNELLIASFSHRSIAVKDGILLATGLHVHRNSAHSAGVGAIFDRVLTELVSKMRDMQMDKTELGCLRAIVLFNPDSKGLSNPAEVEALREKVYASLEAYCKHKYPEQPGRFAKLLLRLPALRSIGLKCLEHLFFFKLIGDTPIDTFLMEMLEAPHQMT
Procedure: The antagonistic activity on FXR was investigated using HepG2 cells transfected with 100 ng of pSG5-FXR and pSG5-RXR, 200 ng of the reporter vector p(hsp27)-TK-LUC containing the FXR response element, and 100 ng of the pGL4.70 vector encoding the human Renilla gene used as a transfection control. Cells were stimulated with the agonist 6-ECDCA (10 µM) alone or in combination with compounds 2–11 after 24 h. In another experimental setting, HepG2 cells were transfected using 100 ng of pSG5-PXR, 100 ng of pSG5-RXR, and 100 ng of pGL4.70, along with the reporter vector pGL3(henance)PXRE. At 24 h post-transfection, cells were stimulated with rifaximin 10 μM (as a positive control) or compounds 2–11 (10 μM). The specificity of compounds 5 and 11 versus FXR and PXR was tested using HepG2 cells transiently transfected with 200 ng of the reporter vector p(UAS)5XTKLuc, 100 ng of a vector containing the ligand binding domain of LXRα or LXRβand 100 ng of pGL4.70, a vector encoding the human Renilla gene. At 24 h post-transfection, cells were stimulated for 18 h with GW3965 (5 μM), compounds 5 and 11 (10 μM), and the combination of GW3965 plus 5 or 11 (50 μM). Cellular lysate was assayed for luciferase and Renilla activities after 18 h using the Dual-Luciferase Reporter assay system (E1980, Promega, Madison, WI, USA). The activity of luciferase was measured using the Glomax 20/20 luminometer (Promega, Madison, WI, USA) and normalized with Renilla activities.

[3] = tested on: Human-CaCo2 cells stimulated with TNFα; experiment: qPCR of PXR and inflammatory cytokines in TNFα-stimulated CaCo2 cells; type: cell-based; conditions: TNFα 100 ng/mL plus compound 10 μM
Procedure: HepG2 and CaCo2 cell lines, obtained from ATCC, were routinely cultured in Eagle’s MEM and high-glucose DMEM, respectively, supplemented with 10% FBS, 1% glutamine, and penicillin/streptomycin. For in vitro experiments, HepG2 (2 × 106) cells were stimulated with 6-ECDCA at a concentration of 10 µM alone or in combination with compound 5 or 11, and CaCo2 cells were exposed to TNFα (100 ng/mL) alone or in combination with rifaximin, compound 5, or 11.
Total RNA was isolated from the HepG2 and CaCo2 cell lines using TRI reagent (Zymo Research) and Direct-zol™ RNA MicroPrep w/Zymo-Spin™ IIC Columns (Zymo Research, Irvine, CA, USA). After purification from genomic DNA using DNase I (Thermo Fisher Scientific, Waltham, MA, USA), 2 μg of RNA from each sample was reverse transcribed using Kit FastGene Scriptase Basic (Nippon Genetics, Mariaweilerstraße, Düren, Germany) in 20-μL of reaction volume, and 50 ng of cDNA was amplified in a 20-μL solution containing 200 nM of each primer and 10 μL of PowerUp™ SYBR™ Green Master Mix (Thermo Fisher Scientific, Waltham, MA, USA) using a Quantstudio 3 system (Applied Biosystems, Foster City, CA, USA). The relative mRNA expression was calculated according to the ΔCt method. The primer used were as follows (forward and reverse): hGapdh (for […]; rev […]), hBsep (for […]; rev […]), hOstα (for […]; rev […]), hNtcp (for […]; rev […]), hPxr (for GCAAGGGCTTTTTCAGGAG; rev GGGTCTTCCGGGTGATCT), hIl-8 (for […]; rev […]), hIl-1β (for […]; rev […]).

Compound | logD at 2 h [1] | PXR Agonism Eff (%) [2] | Effect on proinflammatory factors caused by TNFα stimulation [3]
CCCCCN1CCC(c2nc(-c3ccc4ccccc4c3)no2)CC1 [Compound 5, 3-(Naphthalen-2-yl)-5-(1-pentylpiperidin-4-yl)-1,2,4-oxadiazole] | 4.4 | 71% and 71 ± 4% | reduced changes in the production of proinflammatory factors
OCc1ccc(CN2CCC(c3nc(-c4ccc5ccccc5c4)no3)CC2)cc1 [Compound 11, 5-[1-(4-(Hydroxymethyl)benzyl)piperidin-4-yl]-3-(naphthalen-2-yl)-1,2,4-oxadiazole] | 3.9 | 105% and 105 ± 15% | reduced changes in the production of proinflammatory factors
